According to EP2608671B1, “COMPOUNDS FOR TREATMENT OF CANCER” (Gtx, Inc., priority 2010, dated 2012):
Read-outs that look alike come from different tables or passages of the source.

How the values were obtained:
NCI/ADR-RES = experiment: SRB growth inhibition, P-gp over-expressing MDR line; assay type: cell-based, human; details: for Resistance factor: NCI/ADR-RES vs OVCAR-8, 5760 min
[1] = system: prostate cancer cell lines (LNCaP, DU 145, PC-3, PPC-1); experiment: SRB cytotoxicity, prostate cancer cell panel (text summaries); assay type: cell-based; details: Homo sapiens, read-out: IC50 against prostate cancer cells
Excerpt: (§1) The only compounds which belong to the invention are the ones falling under the scope of formula (XI).

B16-F1 = experiment: SRB cell growth inhibition (cytotoxicity) assay; assay type: cell-based, mouse
Excerpt: as §1

A375 = experiment: SRB cell growth inhibition (cytotoxicity) assay; assay type: cell-based, human
PC-3 = experiment: cells
Excerpt: as §1
Cells were stained with SRB solution.
Cells. […] Cells between the third and fifth passages were used for experiments.
Cell growth inhibition studies. […] Cells were stained with sulphorhodamine B (SRB) solution.

DU 145 [2] = experiment: cells; details: Homo sapiens, DU-145, 96 h, read-out: IC50 ± SEM (nM), DU 145
LNCaP [3] = experiment: cells; details: Homo sapiens, 96 h, read-out: IC50 ± SEM (nM), LNCaP
PPC-1 [4] = experiment: cells; details: Homo sapiens, PPC-1, 96 h, read-out: IC50 ± SEM (nM), PPC-1
WM-164 = experiment: SRB cell growth inhibition (cytotoxicity) assay; assay type: cell-based, human; details: Homo sapiens, WM164; SRB assay, 96 h; Table 2; read-out: IC50 ± SEM (nM), WM-164
OVCAR-8 = experiment: SRB growth inhibition, MDR model parent line; assay type: cell-based, human; details: Homo sapiens, OVCAR-8; Table 5A; read-out: IC50 (nM), OVCAR-8
[5] = system: melanoma cell lines (A375, WM-164, B16-F1) and prostate cancer cell lines (LNCaP, DU 145, PC-3, PPC-1); experiment: SRB cytotoxicity, melanoma and prostate cell panel (averages); assay type: cell-based; details: Prostate cell; summary of Tables 2, 3, 21; read-out: IC50 range over tested melanoma and prostate cell lines
Excerpt: as §1

Bovine brain tubulin = experiment: In vitro tubulin polymerization assay; assay type: biochemical; details: 10 µM
Excerpt: (§2) In Vitro Tubulin Polymerization Assay.
as §2
In vitro microtubule polymerization assay.

[6] = system: PC-3 prostate tumor xenograft; experiment: In vivo antitumor efficacy, PC-3 xenograft; design: species or system mouse; details: PC-3, 50 mg/kg i.p.; control 680 mm^3
Excerpt: PC-3 and A375 tumor xenograft studies.
In vivo antitumor activity [tumor growth inhibition (% T/C), tumor growth delay (T-C value), and tumor cell kill (total log cell kill)].

DU 145 [7] = details: read-out: IC50 ±SEM (nM), DU 145; Table 6
PPC-1 [8] = details: read-out: IC50 ±SEM (nM), PPC-1; Table 6
LNCaP [9] = details: read-out: IC50 ±SEM (nM), LNCaP; Table 6
[10] = Mus musculus, B16-F1, read-out: IC50 ± SEM (nM), B16-F1
[11] = Homo sapiens, A-375, 96 h, read-out: IC50 ± SEM (nM), A375
[12] = Homo sapiens, PC-3, 96 h, read-out: IC50 ± SEM (nM), PC-3
[13] = Table 6, read-out: IC50 ±SEM (nM), B16-F1
[14] = Table 6, read-out: IC50 ±SEM (nM), A375
[15] = read-out: IC50 ±SEM (nM), PC-3, Table 6

## COc1cc(C(=O)c2cccc(-c3ccccc3)n2)cc(OC)c1OC [1c, (6-Phenylpyridin-2-yl)(3,4,5-trimethoxyphenyl)methanone]
NCI/ADR-RES
  Resistance factor: 0.4
[1]; summary over LNCaP, PC-3, DU-145, PPC-1
  IC50: 12 to 35 nM

## COc1cc(C(=O)N2CCC(c3ccccc3)CC2)cc(OC)c1OC [1g, (4-Phenylpiperidin-1-yl)(3,4,5-trimethoxyphenyl)methanone]
B16-F1; [10]
  IC50: > 30000 nM
A375; [11]
  IC50: > 30000 nM
PC-3; [12]
  IC50: > 20000 nM
[1]; summary of Table 1
  IC50: > 20000 nM
DU 145 [2]
  IC50: > 20000 nM
LNCaP [3]
  IC50: > 20000 nM
PPC-1 [4]
  IC50: > 20000 nM

## COc1cc(C(=O)c2cc(-c3ccccc3)on2)cc(OC)c1OC [1i, (5-Phenylisoxazol-3-yl)(3,4,5-trimethoxyphenyl)methanone]
B16-F1; [10]
  IC50: > 30000 nM
A375; [11]
  IC50: > 30000 nM
PC-3; [12]
  IC50: > 10000 nM
[1]; summary of Table 1
  IC50: > 10000 nM
DU 145 [2]
  IC50: > 10000 nM
LNCaP [3]
  IC50: > 10000 nM
PPC-1 [4]
  IC50: > 10000 nM

## COc1cc(C(=NC#N)c2csc(-c3ccccc3)n2)cc(OC)c1OC [2j, N-((2-phenylthiazol-4-yl)(3,4,5-trimethoxyphenyl)methylene)cyanamide]
B16-F1; [10]
  IC50: 60 ± 21 nM
A375; [11]
  IC50: 28 ± 12 nM
WM-164
  IC50: 27 ± 13 nM
PC-3; [12]
  IC50: 27 ± 1 nM
OVCAR-8
  IC50: 34 ± 2 nM
NCI/ADR-RES; Homo sapiens, NCI/ADR-RES, P-gp over-expressed MDR cell line, Table 5A, read-out: IC50 (nM), NCI/ADR-RES
  IC50: 14 ± 1 nM
NCI/ADR-RES
  Resistance factor: 0.4
[5]
  IC50: 20 to 60 nM
Bovine brain tubulin; 20 min incubation, compared to vehicle
  tubulin polymerization inhibited: 64%
DU 145 [2]
  IC50: 42 ± 2 nM
LNCaP [3]
  IC50: 23 ± 2 nM
PPC-1 [4]
  IC50: 20 ± 1 nM

## COc1cc(C(=O)c2csc(-c3ccc(O)cc3)n2)cc(OC)c1OC [2l, (2-(4-Hydroxyphenyl)thiazol-4-yl)(3,4,5-trimethoxyphenyl)methanone]
B16-F1; [10]
  IC50: 110 nM
A375; [11]
  IC50: 100 nM
PC-3; [12]
  IC50: 87 nM
[5]
  IC50: 76 to 116 nM
Bovine brain tubulin; 15 min, Figure 28B
  inhibited tubulin polymerization: 55%
[6]
  Tumor volume at day 21: 331 mm^3
DU 145 [2]
  IC50: 116 nM
LNCaP [3]
  IC50: 103 nM
PPC-1 [4]
  IC50: 76 nM

## COc1cc(C(=O)c2csc(-c3ccc(C)cc3)n2)cc(OC)c1OC [2m]
B16-F1; [13]
  IC50: 21 nM
A375; [14]
  IC50: 11 nM
PC-3; [15]
  IC50: 8.7 nM
DU 145 [7]
  IC50: 6.9 nM
PPC-1 [8]
  IC50: 6.2 nM

## COc1cc(C(=O)c2csc(-c3cc(F)c(F)c(F)c3)n2)cc(OC)c1OC [2p]
B16-F1; [13]
  IC50: 16600 nM
A375; [14]
  IC50: 2200 nM
PC-3; [15]
  IC50: 2380 nM
DU 145 [7]
  IC50: 1900 nM
LNCaP [9]
  IC50: > 10000 nM
PPC-1 [8]
  IC50: 1080 nM

## COc1cc(C(=O)c2csc(-c3ccc(CC(N)=O)cc3)n2)cc(OC)c1OC [2q]
B16-F1; [13]
  IC50: > 20000 nM
A375; [14]
  IC50: > 20000 nM
PC-3; [15]
  IC50: > 10000 nM
DU 145 [7]
  IC50: > 10000 nM
LNCaP [9]
  IC50: > 10000 nM
PPC-1 [8]
  IC50: > 10000 nM
